In patent publication US20250290117A1, “MOLECULAR PHENOTYPIC ANTIMICROBIAL SUSCEPTIBILITY TESTING” (priority 2024, published 2025):

Assays:
Format in all cases: cell-based
[1] = system: pathogens of clinical samples; assay: Molecular phenotypic antimicrobial susceptibility test of clinical samples, extraction DNA purification step prior to PCR (Table 6)
How it was run: (§1)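 Patient specimens in boric acid were grown in culture medium, adjusted to 0.5 McFarland by optical density, then incubated 12-16 hours with antimicrobials in Mueller Hinton Broth at breakpoint concentrations. Growth was read by semi-quantitative PCR, alongside a no-antimicrobial well for pathogen load.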

[2] = system: pathogens of clinical samples; assay: Molecular phenotypic antimicrobial susceptibility test of clinical samples, direct PCR without a separate DNA purification step (Table 6)
How it was run: as §1

Escherichia coli = assay: Traditional culture-based antimicrobial susceptibility test
How it was run: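 E. coli isolates underwent conventional growth, isolation and exposure to antimicrobials, giving a culture-based susceptibility call for each agent.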

[3] = E. coli, clinical sample of r10-r24
[4] = E. coli, clinical sample of r158-r172
[5] = E. faecalis, clinical sample of r93-r99
[6] = E. faecalis, clinical sample of r100-r106
[7] = E. faecalis, clinical sample of r107-r113
[8] = E. faecalis, clinical sample of r114-r120
[9] = E. faecalis, clinical sample of r151-r157
[10] = K. aerogenes, clinical sample of r136-r150
[11] = K. pneumoniae, clinical sample of r121-r135
[12] = M. morganii, clinical sample of r55-r69
[13] = M. morganii, clinical sample of r70-r84
[14] = P. mirabilis, clinical sample of r25-r39
[15] = P. mirabilis, clinical sample of r40-r54

C[C@@H]1O[C@@H]1P(=O)(O)O [Fosfomycin]
Molecular Antibiotic Susceptibility Result [1, 3]: Sensitive (Antimicrobial wells with pathogen load detected below the control wells (typically >2 cycle thresholds later) may be reported as Sensitive) | Ct ([1]; E. coli, clinical sample of r10-r24, Ct Control Avg 18.112): 28.111 | Molecular Antibiotic Susceptibility Result [1, 4]: Sensitive (Antimicrobial wells with pathogen load detected below the control wells (typically >2 cycle thresholds later) may be reported as Sensitive) | Ct ([1]; E. coli, clinical sample of r158-r172, Ct Control Avg 20.146): 30.261 | Molecular Antibiotic Susceptibility Result [1, 5]: Sensitive (Antimicrobial wells with pathogen load detected below the control wells (typically >2 cycle thresholds later) may be reported as Sensitive) | Ct ([1]; E. faecalis, clinical sample of r93-r99, Ct Control Avg 22.987): 35.358 | Molecular Antibiotic Susceptibility Result [1, 6]: sensitive | Ct ([1]; E. faecalis, clinical sample of r100-r106, Ct Control Avg 23.073): 36.898 | Molecular Antibiotic Susceptibility Result [1, 7]: Resistant | Ct ([1]; E. faecalis, clinical sample of r107-r113, Ct Control Avg 22.144): 20.142 | Molecular Antibiotic Susceptibility Result [1, 8]: Sensitive (Antimicrobial wells with pathogen load detected below the control wells (typically >2 cycle thresholds later) may be reported as Sensitive) | Ct ([1]; E. faecalis, clinical sample of r114-r120, Ct Control Avg 20.822): 30.598 | Molecular Antibiotic Susceptibility Result [1, 9]: Sensitive (Antimicrobial wells with pathogen load detected below the control wells (typically >2 cycle thresholds later) may be reported as Sensitive) | Ct ([1]; E. faecalis, clinical sample of r151-r157, Ct Control Avg 20.56): 37.968 | Molecular Antibiotic Susceptibility Result [1, 10]: Sensitive (Antimicrobial wells with pathogen load detected below the control wells (typically >2 cycle thresholds later) may be reported as Sensitive) | Ct ([1]; K. aerogenes, clinical sample of r136-r150, Ct Control Avg 19.994): 25.008 | Molecular Antibiotic Susceptibility Result [1, 11]: Resistant | Ct ([1]; K. pneumoniae, clinical sample of r121-r135, Ct Control Avg 24.272): 18.711 | Molecular Antibiotic Susceptibility Result [1, 12]: Sensitive (Antimicrobial wells with pathogen load detected below the control wells (typically >2 cycle thresholds later) may be reported as Sensitive) | Ct ([1]; M. morganii, clinical sample of r55-r69, Ct Control Avg 28.86): 31.935 | Molecular Antibiotic Susceptibility Result [1, 13]: Sensitive (Antimicrobial wells with pathogen load detected below the control wells (typically >2 cycle thresholds later) may be reported as Sensitive) | Ct ([1]; M. morganii, clinical sample of r70-r84, Ct Control Avg 27.053): 37.955 | Molecular Antibiotic Susceptibility Result [1, 14]: Sensitive (Antimicrobial wells with pathogen load detected below the control wells (typically >2 cycle thresholds later) may be reported as Sensitive) | Ct ([1]; P. mirabilis, clinical sample of r25-r39, Ct Control Avg 26.064): 27.051 | Molecular Antibiotic Susceptibility Result [1, 15]: Sensitive (Antimicrobial wells with pathogen load detected below the control wells (typically >2 cycle thresholds later) may be reported as Sensitive) | Ct ([1]; P. mirabilis, clinical sample of r40-r54, Ct Control Avg 26.987): 31.981 | Molecular Antibiotic Susceptibility Result [2, 3]: Sensitive (Antimicrobial wells with pathogen load detected below the control wells (typically >2 cycle thresholds later) may be reported as Sensitive) | Ct ([2]; E. coli, clinical sample of r10-r24, Ct control avg 12.97): 25.481 | Molecular Antibiotic Susceptibility Result [2, 4]: Sensitive (Antimicrobial wells with pathogen load detected below the control wells (typically >2 cycle thresholds later) may be reported as Sensitive) | Ct ([2]; E. coli, clinical sample of r158-r172, Ct control avg 12.894): 27.932 | Molecular Antibiotic Susceptibility Result [2, 5]: Sensitive (Antimicrobial wells with pathogen load detected below the control wells (typically >2 cycle thresholds later) may be reported as Sensitive) | Ct ([2]; E. faecalis, clinical sample of r93-r99, Ct control avg 22.011): 30.578 | Molecular Antibiotic Susceptibility Result [2, 6]: sensitive | Ct ([2]; E. faecalis, clinical sample of r100-r106, Ct control avg 21.027): 33.882 | Molecular Antibiotic Susceptibility Result [2, 7]: Resistant | Ct ([2]; E. faecalis, clinical sample of r107-r113, Ct control avg 20.529): 19.527 | Molecular Antibiotic Susceptibility Result [2, 8]: Sensitive (Antimicrobial wells with pathogen load detected below the control wells (typically >2 cycle thresholds later) may be reported as Sensitive) | Ct ([2]; E. faecalis, clinical sample of r114-r120, Ct control avg 20.909): 27.178 | Molecular Antibiotic Susceptibility Result [2, 9]: Sensitive (Antimicrobial wells with pathogen load detected below the control wells (typically >2 cycle thresholds later) may be reported as Sensitive) | Ct ([2]; E. faecalis, clinical sample of r151-r157, Ct control avg 18.551): 32.048 | Molecular Antibiotic Susceptibility Result [2, 10]: Sensitive (Antimicrobial wells with pathogen load detected below the control wells (typically >2 cycle thresholds later) may be reported as Sensitive) | Ct ([2]; K. aerogenes, clinical sample of r136-r150, Ct control avg 13.854): 19.581 | Molecular Antibiotic Susceptibility Result [2, 11]: Resistant | Ct ([2]; K. pneumoniae, clinical sample of r121-r135, Ct control avg […]): 14.895 | Molecular Antibiotic Susceptibility Result [2, 12]: Sensitive (Antimicrobial wells with pathogen load detected below the control wells (typically >2 cycle thresholds later) may be reported as Sensitive) | Ct ([2]; M. morganii, clinical sample of r55-r69, Ct control avg 12.09): 18.368 | Molecular Antibiotic Susceptibility Result [2, 13]: Sensitive (Antimicrobial wells with pathogen load detected below the control wells (typically >2 cycle thresholds later) may be reported as Sensitive) | Ct ([2]; M. morganii, clinical sample of r70-r84, Ct control avg 11.677): 28.123 | Molecular Antibiotic Susceptibility Result [2, 14]: Sensitive (Antimicrobial wells with pathogen load detected below the control wells (typically >2 cycle thresholds later) may be reported as Sensitive) | Ct ([2]; P. mirabilis, clinical sample of r25-r39, Ct control avg 11.801): 26.9 | Molecular Antibiotic Susceptibility Result [2, 15]: Sensitive (Antimicrobial wells with pathogen load detected below the control wells (typically >2 cycle thresholds later) may be reported as Sensitive) | Ct ([2]; P. mirabilis, clinical sample of r40-r54, Ct control avg 10.06): 27.935 | Traditional Culture Results (Escherichia coli; E. coli #1 - WDCM 00090 - 6.2×E3): Sensitive | Traditional Culture Results (Escherichia coli; E. coli #2 - WDCM 00090 - 6.2×E3): Sensitive
